Results: patent US20120245137A1 (Zalicus Pharmaceuticals Ltd., priority 2009, published 2012)

Columns and labels:
Assay type in all cases: cell-based
[1] = target: human α1G T-type channels (Homo sapiens, UniProt O43497); experiment: T-type calcium channel block, whole cell patch clamp, α1G; conditions: HEK cells stably expressing human α1G; mainly non-inactivated protocol; values above 10,000 nM represented as 10000
Procedure, shortened: (§1)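 Whole-cell T-type currents, stably transfected HEK 293 (human α1G/α1H), passage 4-20. Cmpd in external soln, 0.1-0.01% DMSO, local gravity perfusion after ~10 min rest. Two voltage protocols: non-inactivating (resting block), inactivation (voltage-dependent block).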

[2] = target: N-type calcium channel subunits (α1B, α2δ, and β3a) (Homo sapiens, UniProt Q00975); experiment: Block of Cav2.2 channel, whole cell voltage clamp, manual and PatchXpress; conditions: Table 5; table follows Assay Example 3 (whole cell voltage clamp / PatchXpress); assay not given
N-type calcium channel subunits (α1B, α2δ, and β3a), sequence (Q00975 whole entry): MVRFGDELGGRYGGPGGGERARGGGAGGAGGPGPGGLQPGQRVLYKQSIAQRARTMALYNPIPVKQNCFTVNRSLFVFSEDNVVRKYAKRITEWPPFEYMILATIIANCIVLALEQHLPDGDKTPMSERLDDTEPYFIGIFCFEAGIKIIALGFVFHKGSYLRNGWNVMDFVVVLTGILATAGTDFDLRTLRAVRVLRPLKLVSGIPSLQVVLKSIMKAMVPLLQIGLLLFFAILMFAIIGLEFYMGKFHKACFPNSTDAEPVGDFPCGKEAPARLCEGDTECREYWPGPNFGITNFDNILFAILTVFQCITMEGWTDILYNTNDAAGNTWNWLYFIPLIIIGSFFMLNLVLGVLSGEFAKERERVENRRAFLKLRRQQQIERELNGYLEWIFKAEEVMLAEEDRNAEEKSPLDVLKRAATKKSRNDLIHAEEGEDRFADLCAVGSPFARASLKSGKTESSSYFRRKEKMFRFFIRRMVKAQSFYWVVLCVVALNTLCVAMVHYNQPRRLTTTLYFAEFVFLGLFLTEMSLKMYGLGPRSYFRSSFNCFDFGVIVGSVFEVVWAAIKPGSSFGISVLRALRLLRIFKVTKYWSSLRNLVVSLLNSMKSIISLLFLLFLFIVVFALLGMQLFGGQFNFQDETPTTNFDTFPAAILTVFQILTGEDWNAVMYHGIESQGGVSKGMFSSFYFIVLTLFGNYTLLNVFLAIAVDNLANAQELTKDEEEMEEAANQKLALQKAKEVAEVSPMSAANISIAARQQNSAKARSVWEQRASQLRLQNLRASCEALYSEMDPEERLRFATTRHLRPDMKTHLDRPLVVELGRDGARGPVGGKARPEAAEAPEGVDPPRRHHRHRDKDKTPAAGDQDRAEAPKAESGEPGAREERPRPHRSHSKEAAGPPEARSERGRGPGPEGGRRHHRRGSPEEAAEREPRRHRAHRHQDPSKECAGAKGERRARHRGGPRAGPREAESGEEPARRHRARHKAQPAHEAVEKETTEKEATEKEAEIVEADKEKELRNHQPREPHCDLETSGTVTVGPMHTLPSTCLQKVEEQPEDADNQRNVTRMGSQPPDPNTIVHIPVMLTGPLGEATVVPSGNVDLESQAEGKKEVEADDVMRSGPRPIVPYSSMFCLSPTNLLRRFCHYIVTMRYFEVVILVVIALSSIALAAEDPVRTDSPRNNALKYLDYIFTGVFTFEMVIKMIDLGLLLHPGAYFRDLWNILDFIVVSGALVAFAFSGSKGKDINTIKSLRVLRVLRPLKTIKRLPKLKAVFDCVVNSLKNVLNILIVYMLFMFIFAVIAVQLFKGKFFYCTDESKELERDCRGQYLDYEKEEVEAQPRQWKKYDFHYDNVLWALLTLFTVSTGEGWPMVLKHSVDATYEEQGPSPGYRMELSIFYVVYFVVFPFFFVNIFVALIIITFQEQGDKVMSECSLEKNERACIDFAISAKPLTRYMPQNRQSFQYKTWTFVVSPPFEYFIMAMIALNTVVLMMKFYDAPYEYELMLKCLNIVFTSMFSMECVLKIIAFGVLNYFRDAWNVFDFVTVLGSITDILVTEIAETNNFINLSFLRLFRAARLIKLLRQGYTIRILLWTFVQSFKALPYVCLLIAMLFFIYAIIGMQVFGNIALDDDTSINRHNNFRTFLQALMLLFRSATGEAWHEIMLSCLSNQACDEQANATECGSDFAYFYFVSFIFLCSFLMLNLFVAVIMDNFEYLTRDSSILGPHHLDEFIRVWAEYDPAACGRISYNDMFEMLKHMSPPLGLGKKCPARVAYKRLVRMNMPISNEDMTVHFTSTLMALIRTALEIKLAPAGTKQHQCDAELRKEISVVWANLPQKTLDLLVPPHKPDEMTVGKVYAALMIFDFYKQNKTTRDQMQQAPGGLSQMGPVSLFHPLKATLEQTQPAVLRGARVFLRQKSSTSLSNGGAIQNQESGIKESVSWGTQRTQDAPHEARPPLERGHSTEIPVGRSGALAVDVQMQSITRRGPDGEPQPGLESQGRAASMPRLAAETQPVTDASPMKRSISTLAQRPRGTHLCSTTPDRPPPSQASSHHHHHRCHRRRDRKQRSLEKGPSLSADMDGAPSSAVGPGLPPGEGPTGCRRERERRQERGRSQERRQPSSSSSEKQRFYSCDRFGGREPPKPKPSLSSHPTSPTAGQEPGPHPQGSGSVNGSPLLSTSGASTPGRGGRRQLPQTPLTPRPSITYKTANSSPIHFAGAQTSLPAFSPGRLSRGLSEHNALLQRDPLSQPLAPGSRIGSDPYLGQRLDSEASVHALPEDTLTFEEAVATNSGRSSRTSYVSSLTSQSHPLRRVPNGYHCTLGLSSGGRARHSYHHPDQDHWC
N-type calcium channel subunits (α1B, α2δ, and β3a), sequence (P54289 25-1103 partner): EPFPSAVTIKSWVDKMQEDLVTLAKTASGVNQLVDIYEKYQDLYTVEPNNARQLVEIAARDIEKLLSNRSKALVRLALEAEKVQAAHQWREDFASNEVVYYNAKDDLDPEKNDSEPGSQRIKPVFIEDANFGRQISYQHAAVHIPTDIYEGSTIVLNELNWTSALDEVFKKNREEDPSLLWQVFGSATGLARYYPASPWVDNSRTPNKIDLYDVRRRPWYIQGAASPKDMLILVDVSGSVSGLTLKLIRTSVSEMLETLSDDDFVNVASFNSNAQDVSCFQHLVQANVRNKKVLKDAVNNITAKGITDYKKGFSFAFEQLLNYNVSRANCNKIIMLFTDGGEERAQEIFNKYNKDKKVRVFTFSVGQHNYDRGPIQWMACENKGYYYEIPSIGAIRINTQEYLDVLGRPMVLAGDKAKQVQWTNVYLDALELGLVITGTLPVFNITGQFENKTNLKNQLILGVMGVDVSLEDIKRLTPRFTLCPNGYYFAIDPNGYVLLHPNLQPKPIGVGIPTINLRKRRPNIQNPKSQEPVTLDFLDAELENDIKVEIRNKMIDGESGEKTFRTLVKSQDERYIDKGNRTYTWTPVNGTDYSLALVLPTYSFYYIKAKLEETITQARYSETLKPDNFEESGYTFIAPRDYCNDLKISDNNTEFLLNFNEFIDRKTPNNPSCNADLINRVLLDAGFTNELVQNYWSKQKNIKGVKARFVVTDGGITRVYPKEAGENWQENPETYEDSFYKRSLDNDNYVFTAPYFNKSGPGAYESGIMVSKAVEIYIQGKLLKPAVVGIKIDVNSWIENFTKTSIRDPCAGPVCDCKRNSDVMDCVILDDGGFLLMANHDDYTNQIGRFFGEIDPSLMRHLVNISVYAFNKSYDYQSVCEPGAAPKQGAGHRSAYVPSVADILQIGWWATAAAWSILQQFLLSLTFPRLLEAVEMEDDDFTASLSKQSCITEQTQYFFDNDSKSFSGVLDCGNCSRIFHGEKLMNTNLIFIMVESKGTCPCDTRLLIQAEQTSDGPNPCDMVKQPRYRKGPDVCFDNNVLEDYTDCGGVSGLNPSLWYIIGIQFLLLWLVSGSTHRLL
N-type calcium channel subunits (α1B, α2δ, and β3a), sequence (P54284 whole entry partner): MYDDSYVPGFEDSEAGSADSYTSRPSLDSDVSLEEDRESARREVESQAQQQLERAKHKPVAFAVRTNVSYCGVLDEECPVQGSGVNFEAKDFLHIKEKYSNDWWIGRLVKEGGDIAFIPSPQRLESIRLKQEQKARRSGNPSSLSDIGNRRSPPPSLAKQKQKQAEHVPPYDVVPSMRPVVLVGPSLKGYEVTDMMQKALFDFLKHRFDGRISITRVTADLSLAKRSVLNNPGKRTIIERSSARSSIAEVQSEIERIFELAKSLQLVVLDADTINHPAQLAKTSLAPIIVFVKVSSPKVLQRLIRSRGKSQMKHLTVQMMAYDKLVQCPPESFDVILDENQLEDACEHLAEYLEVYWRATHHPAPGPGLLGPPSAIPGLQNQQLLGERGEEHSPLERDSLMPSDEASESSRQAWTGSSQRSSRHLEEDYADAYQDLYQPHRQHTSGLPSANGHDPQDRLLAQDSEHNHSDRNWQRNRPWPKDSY
Procedure, shortened: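 Percent block taken as current amplitude ratio with versus without compound, applied in rising doses; IC50 fitted where one cell received multiple doses. Protocol: 50 ms pulses to +20 mV at 0.067 Hz from […] or −90 mV holding; P/n leak subtraction, no junction-potential correction; manual and PatchXpress recordings.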

[3] = target: human α1H T-type channels (Homo sapiens, UniProt O95180); experiment: T-type calcium channel block, whole cell patch clamp, α1H; conditions: HEK cells stably expressing human α1H; mainly non-inactivated protocol; values above 10,000 nM represented as 10000
Procedure, shortened: as §1

Molecule: 2-(4,4-difluoropiperidin-1-yl)-N- ((1R,4R)-4-((3- (trifluoromethyl)phenylsulfonyl) methyl)cyclohexyl)acetamide [Compound 166]
- IC50 [1]: > 10 µM
- IC50 [2]: 750 nM
- IC50 [3]: 8.47 µM

Molecule: 3-chloro-4-fluoro-N-((1R,4R)4-(3- (trifluoromethyl)phenylsulfonyl) cyclohexyl)benzamide [Compound 124]
- IC50 [1]: 0.35 µM
- IC50 [2]: 510 nM
- IC50 [3]: 0.54 µM

Molecule: 3-chloro-5-fluoro-N-(1- methyl-4-(3-(trifluoromethyl) phenylsulfonyl)cyclohexyl) benzamide [Compound 318]
- IC50 [1]: 2.43 µM
- IC50 [2]: 620 nM
- IC50 [3]: 1.33 µM

Molecule: 3-chloro-5-fluoro-N-((1S,4S)-4-((3- (trifluoromethyl)phenylsulfonyl) methyl)cyclohexyl)benzamide [Compound 137]
- IC50 [1]: 0.43 µM
- IC50 [2]: 320 nM
- IC50 [3]: 0.33 µM

Molecule: 4-chloro-2-(methylsulfonyl)-N- ((1R,4R)-4-(3- (trifluoromethyl)phenylsulfonyl) cyclohexyl)benzamide [Compound 121]
- IC50 [1]: 0.72 µM
- IC50 [2]: 3730 nM
- IC50 [3]: 0.93 µM

Molecule: 4-chloro-2-methoxy-N-((1S,4S)-4- ((3- (trifluoromethyl)phenylsulfonyl) methyl)cyclohexyl)benzamide [Compound 140]
- IC50 [1]: 1.1 µM
- IC50 [2]: 700 nM
- IC50 [3]: 0.7 µM

Molecule: CC(C)(CCNC(=O)c1cn2ccc(C(F)(F)F)cc2n1)S(=O)(=O)c1cccc(C(F)(F)F)c1 [Compound 507, N-(3-methyl-3-(3-(trifluoromethyl)phenylsulfonyl)butyl)-7-(trifluoromethyl)imidazo[1,2-a]pyridine-2-carboxamide]
- IC50 [1]: 0.38 µM
- IC50 [3]: 8.3 µM

Molecule: CN(CCC(C)(C)S(=O)(=O)c1cccc(C(F)(F)F)c1)C(=O)c1ccc(F)c(C(F)(F)F)c1 [Compound 510, 4-fluoro-N-methyl-N-(3-methyl-3-(3-(trifluoromethyl)phenylsulfonyl)butyl)-3-(trifluoromethyl)benzamide]
- IC50 [1]: 0.17 µM
- IC50 [3]: 5.87 µM

Molecule: COc1cc(C(=O)N(C)CCC(C)(C)S(=O)(=O)c2cccc(C(F)(F)F)c2)cc(Cl)n1 [Compound 512, 2-chloro-6-methoxy-N-methyl-N-(3-methyl-3-(3-(trifluoromethyl)phenylsulfonyl)butyl) isonicotinamide]
- IC50 [1]: 0.33 µM
- IC50 [3]: > 10 µM

Molecule: CN(CCC(C)(C)S(=O)(=O)c1cccc(C(F)(F)F)c1)C(=O)c1cc(C(F)(F)F)n[nH]1 [Compound 513, N-methyl-N-(3-methyl-3-(3-(trifluoromethyl)phenylsulfonyl)butyl)-3-(trifluoromethyl)-1H-pyrazole-5-carboxamide]
- IC50 [1]: 0.49 µM
- IC50 [3]: > 10 µM

Molecule: CN(CCC(C)(C)S(=O)(=O)c1cccc(C(F)(F)F)c1)C(=O)c1cn2ccc(C(F)(F)F)cc2n1 [Compound 514, N-methyl-N-(3-methyl-3-(3-(trifluoromethyl)phenylsulfonyl)butyl)-7-(trifluoromethyl)imidazo[1,2-a]pyridine-2-carboxamide]
- IC50 [1]: 0.84 µM
- IC50 [3]: > 10 µM

Molecule: CN(CCC(C)(C)S(=O)(=O)c1cccc(C(F)(F)F)c1)CC(=O)NC(C)(C)C [Compound 516, N-tert-butyl-2-(methyl(3-methyl-3-(3-(trifluoromethyl)phenylsulfonyl)butyl)amino)acetamide]
- IC50 [1]: 0.62 µM
- IC50 [3]: > 10 µM

Molecule: CC(C)(CN[C@H]1CC[C@H](C(F)(F)F)CC1)S(=O)(=O)c1cccc(C(F)(F)F)c1 [Compound 517, (1R,4R)-N-(2-methyl-2-(3-(trifluoromethyl)phenylsulfonyl)propyl)-4-(trifluoromethyl)cyclo hexanamine]
- IC50 [1]: 0.17 µM
- IC50 [3]: 6.14 µM

Molecule: CC1(C)CCC(NCC(C)(C)S(=O)(=O)c2cccc(C(F)(F)F)c2)CC1 [Compound 518, 4,4-dimethyl-N-(2-methyl-2-(3-(trifluoromethyl)phenylsulfonyl)propyl) cyclohexanamine]
- IC50 [1]: 0.6 µM
- IC50 [3]: 4.12 µM

Molecule: CC(C)(CN[C@H]1CC[C@@H](C(F)(F)F)CC1)S(=O)(=O)c1cccc(C(F)(F)F)c1 [Compound 519, (1S,4S)-N-(2-methyl-2-(3-(trifluoromethyl)phenylsulfonyl)propyl)-4-(trifluoromethyl) cyclohexanamine]
- IC50 [1]: 0.55 µM
- IC50 [3]: 3.28 µM

Molecule: CC(C)(CCNC(=O)c1ccc(Oc2ccc(F)cc2)cc1)S(=O)(=O)c1cccc(C(F)(F)F)c1 [Compound 520, 4-(4-fluorophenoxy)-N-(3-methyl-3-(3-(trifluoromethyl)phenylsulfonyl)butyl) benzamide]
- IC50 [1]: 0.11 µM
- IC50 [3]: 0.47 µM

Molecule: CC(C)(CNC(=O)c1ccc(Oc2ccc(F)cc2)cc1)S(=O)(=O)c1cccc(C(F)(F)F)c1 [Compound 521, 4-(4-fluorophenoxy)-N-(2-methyl-2-(3-(trifluoromethyl)phenylsulfonyl)propyl) benzamide]
- IC50 [1]: 0.47 µM
- IC50 [3]: 0.91 µM

Molecule: CC(C)(CCNC(=O)c1ncc(C(F)(F)F)cc1S(C)(=O)=O)S(=O)(=O)c1cccc(C(F)(F)F)c1 [Compound 523, N-(3-methyl-3-(3-(trifluoromethyl)phenylsulfonyl)butyl)-3-(methylsulfonyl)-5-(trifluorornethyl)picolinamide]
- IC50 [1]: 0.56 µM
- IC50 [3]: > 10 µM

Molecule: CC(C)(C(=O)Nc1ccc(Oc2ccc(F)c(Cl)c2)nc1)S(=O)(=O)c1cccc(C(F)(F)F)c1 [Compound 524, N-(6-(3-chloro-4-tluorophenoxy)pyridin-3-yl)-2-methyl-2-(3-(trifluoromethyl)phenylsulfonyl)propanamide]
- IC50 [1]: 0.38 µM
- IC50 [3]: 2.07 µM

Molecule: CC(C)(C(=O)Nc1ccc(Oc2ccc(C(F)(F)F)nc2)nc1)S(=O)(=O)c1cccc(C(F)(F)F)c1 [Compound 525, 2-methyl-2-(3-(trifluoromethyl)phenylsulfonyl)-N-(6-(6-(trifluoromethyl)pyridin-3-yloxy)pyridin-3-yl) propanamide]
- IC50 [1]: 0.47 µM
- IC50 [3]: 2.88 µM

Molecule: CC(C)(CCNC(=O)c1cc(C(F)(F)F)nc(S(C)(=O)=O)c1)S(=O)(=O)c1cccc(C(F)(F)F)c1 [Compound 526, N-(3-methyl-3-(3-(trifluoromethyl)phenylsulfonyl)butyl)-2-(methylsulfonyl)-6-(trifluoromethyl)isonicotinamide]
- IC50 [1]: 0.24 µM
- IC50 [3]: 2.93 µM

Molecule: CC(C)S(=O)(=O)c1cc(C(F)(F)F)cnc1C(=O)NCC(C)(C)S(=O)(=O)c1cccc(C(F)(F)F)c1 [Compound 527, 3-(isopropylsulfonyl)-N-(2-methyl-2-(3-(trifluoromethyl)phenylsulfonyl)propyl)-5-(trifluoromethyl)picolinamide]
- IC50 [1]: 0.07 µM
- IC50 [3]: > 10 µM

Molecule: CC(C)S(=O)(=O)c1cc(C(F)(F)F)cnc1C(=O)NCCC(C)(C)S(=O)(=O)c1cccc(C(F)(F)F)c1 [Compound 528, 3-(isopropylsulfonyl)-N-(3-methyl-3-(3-(trifluoromethyl)phenylsulfonyl)butyl)-5-(trifluoromethyl)picolinamide]
- IC50 [1]: 0.08 µM
- IC50 [3]: 2.41 µM

Molecule: CC(C)(CCNC(=O)c1ccc(Cl)cc1S(C)(=O)=O)S(=O)(=O)c1cccc(C(F)(F)F)c1 [Compound 529, 4-chloro-N-(3-methyl-3-(3-(trifluoromethyl)phenylsulfonyl)butyl)-2-(methylsulfonyl)benzamide]
- IC50 [1]: 0.78 µM
- IC50 [3]: 9.69 µM

Molecule: O=C(N[C@H]1CC[C@@](F)(S(=O)(=O)c2cccc(C(F)(F)F)c2)CC1)[C@H]1CCCCN1 [Compound 531, (R)-N-((1S,4S)-4-fluoro-4-(3-(trifluoromethyl)phenylsulfonyl)cyclohexyl) piperidine-2-carboxamide]
- IC50 [1]: 3.56 µM
- IC50 [3]: > 10 µM

Molecule: O=C(N[C@H]1CC[C@@](F)(S(=O)(=O)c2cccc(C(F)(F)F)c2)CC1)[C@@H]1CCCCN1 [Compound 532, (S)-N-((1S,4R)-4-fluoro-4-(3-(trifluoromethyl)phenylsulfonyl)cyclohexyl) piperidine-2-carboxamide]
- IC50 [1]: 1.63 µM
- IC50 [3]: > 10 µM

Molecule: CC(C)(CCNC(=O)c1ccc(F)c(C(F)(F)F)c1)S(=O)(=O)c1cc(F)cc(C(F)(F)F)c1 [Compound 533, 4-fluoro-N-(3-(3-fluoro-5-(trifluoromethyl)phenylsulfonyl)-3-methylbutyl)-3-(trifluoromethyl)benzamide]
- IC50 [1]: 0.35 µM
- IC50 [3]: 1.08 µM

Molecule: Cn1nc(C(F)(F)F)cc1C(=O)NCCC(C)(C)S(=O)(=O)c1cc(F)cc(C(F)(F)F)c1 [Compound 535, N-(3-(3-fluoro-5-(trifluoromethyl)phenylsulfonyl)-3-methylbutyl)-l-methyl-3-(trifluoromcthyl)-1H-pyrazole-5-carboxamide]
- IC50 [1]: 0.7 µM
- IC50 [3]: 4.14 µM

Molecule: CC(C)(CCNC(=O)c1cc(C(F)(F)F)nc(S(C)(=O)=O)c1)S(=O)(=O)c1cc(F)cc(C(F)(F)F)c1 [Compound 536, N-(3-(3-fluoro-5-(trifluoromethyl)phenylsulfonyl)-3-methylbutyl)-2-(methylsulfonyl)-6-(trifluoromethyl) isonicotinamide]
- IC50 [1]: 0.64 µM
- IC50 [3]: > 10 µM

Molecule: CC(C)(CCNC(=O)c1ccc(Oc2ccc(Cl)cc2)cc1)S(=O)(=O)c1cc(F)cc(C(F)(F)F)c1 [Compound 537, 4-(4-chlorophenoxy)-N-(3-(3-fluoro-5-(trifluoromethyl)phenylsulfonyl)-3-methylbutyl)benzamide]
- IC50 [1]: 0.47 µM
- IC50 [3]: 0.74 µM
